Patent publication US12667572B2, “Tricyclic compounds useful in the treatment of cancer, autoimmune and inflammatory disorders” (SCHRÖDINGER, INC., priority 2021, dated 2026)
Where two headings read alike, the source gives them in different places.

How the values were obtained:
[1] = target: T1, full-length MALT1 protein His-MALT1(1-824) (Homo sapiens, UniProt Q9UDY8); assay: MALT1 protease assay, Assay 2 (1 nM MALT1, Ac-LRSR-AMC substrate); format: biochemical; settings: 1 nM MALT1, 50 μM Ac-LRSR-AMC, 2 h pre-incubation, 8 hr incubation at RT
T1 construct: full-length MALT1 protein His-MALT1(1-824); His (N); made in house; host or cells: baculovirus-infected insect cells
T1 sequence (Q9UDY8 1-824): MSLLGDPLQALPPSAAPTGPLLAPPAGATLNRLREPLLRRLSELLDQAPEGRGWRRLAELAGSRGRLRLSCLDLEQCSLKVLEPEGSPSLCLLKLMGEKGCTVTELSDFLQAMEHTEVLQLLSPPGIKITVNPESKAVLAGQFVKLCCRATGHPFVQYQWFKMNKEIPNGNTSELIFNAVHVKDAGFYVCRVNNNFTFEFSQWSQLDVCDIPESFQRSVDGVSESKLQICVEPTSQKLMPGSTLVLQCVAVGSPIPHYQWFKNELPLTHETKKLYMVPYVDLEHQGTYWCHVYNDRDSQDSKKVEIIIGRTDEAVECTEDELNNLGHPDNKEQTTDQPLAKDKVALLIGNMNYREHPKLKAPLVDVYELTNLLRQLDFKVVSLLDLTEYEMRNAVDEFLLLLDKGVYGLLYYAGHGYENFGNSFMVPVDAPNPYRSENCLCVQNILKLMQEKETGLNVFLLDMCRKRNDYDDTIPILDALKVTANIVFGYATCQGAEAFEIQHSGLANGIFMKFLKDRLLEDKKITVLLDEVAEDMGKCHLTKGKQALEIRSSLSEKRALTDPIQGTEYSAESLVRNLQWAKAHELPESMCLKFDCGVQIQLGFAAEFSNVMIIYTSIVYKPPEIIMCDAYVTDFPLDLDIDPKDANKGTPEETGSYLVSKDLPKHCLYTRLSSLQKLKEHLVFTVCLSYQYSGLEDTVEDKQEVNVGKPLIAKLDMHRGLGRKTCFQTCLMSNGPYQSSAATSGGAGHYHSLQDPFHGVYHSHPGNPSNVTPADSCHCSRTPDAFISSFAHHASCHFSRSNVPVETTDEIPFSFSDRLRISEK
How it was run: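 Compounds (0.1% DMSO final) sat 2 h at RT with insect-cell-expressed His-MALT1(1-824), in 50 mM Tris pH 7.5, 600 mM sodium citrate, 1 mM DTT, 1 mM EDTA, 0.05% BSA. Cleavage of 50 μM Ac-LRSR-AMC (Km ~100 μM) ran 8 h at RT, read as AMC fluorescence. IC50 and Hill coefficient fitted to % remaining activity.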

[2] = system: IL10 secretion in OCI-LY10 cells; assay: Human IL10 secretion assay, Assay 2 (MSD); format: cell-based; settings: 24 h incubation, Meso Scale Discovery, read-out: IL-10 Secretion IC50 [nM] Assay 2
Description: IL10 is one of the cytokines that are regulated via activation of NF-kB signaling. For example, in ABC-DLBCL cell lines, the activated NF-kB signaling leads to increased IL10 secretion. Inhibition of NF-kB signaling has been shown leading to decreased IL10 secretion.
Assay 2: OCI-LY10 cells were seeded in IMEM supplemented with 20% fetal bovine serum at 4.8×10^5 cells per 160 μL per well in 96-well V-bottom cell culture plates (corning, 3894), treated with 120 nL of 3-fold serial compound dilutions, starting at 4 mM. The final vehicle concentration was 0.075% DMSO in all wells. After a 24 h incubation, human IL-10 precoated plates (Meso Scale Discovery) were washed 3 times with PBST, and 50 μL culture medium was aspirated into the MSD plate and incubated at 4° C. overnight. The supernatant was then discarded, and the wells were washed 3 times with PB ST. SULFO-TAG Anti-human IL-10 Antibody (50×) was diluted 50-fold according to the Meso Scale Protocol, then 25 μL of SULFO-TAG Anti-human IL-10 Antibody (1×) was added. After 2 h of incubation at RT, the supernatant was discarded, and the well was washed 3 times with PBST. 2×read buffer was added and the signal was read on an MSD Sector S600. The effect of a particular compound on IL10 secretion is shown relative to the effect of DMSO; set as 100%. IC50 values (nM) were determined using 4-parametric curve-fitting.

Compound | IC50 [1] [nM] | IC50 ([2]; Homo sapiens) [nM] | IC50 [2] [nM]
C[C@H](O)c1cnn(-c2ncc(NC(=O)[C@H]3CC4(CCC4)c4c3cnc3cc(Cl)nn43)cc2Cl)n1 (single isomer, unassigned) [Example 158] | 10 to 100 | 100 to 1000 | 
CC1(C)CC(C(=O)Nc2cnc(OC3CC3)c(C#N)c2)c2cnc3cc(F)nn3c21 (single isomer, unassigned) [Example 81, N-(5-cyano-6-cyclopropoxypyridin-3-yl)-2-fluoro-8,8-dimethyl-7,8-dihydro-6H-cyclopenta[e]pyrazolo[1,5-a]pyrimidine-6-carboxamide] | 10 to 100 | 100 to 1000 | 
CC1(C)CC(C(=O)Nc2cnc(-n3nccn3)c(C(F)F)c2)c2cnc3cc(Cl)nn3c21 (single isomer, unassigned) [Example 47, 2-chloro-N-(5-(difluoromethyl)-6-(2H-1,2,3-triazol-2-yl)pyridin-3-yl)-8,8-dimethyl-7,8-dihydro-6H-cyclopenta[e]pyrazolo[1,5-a]pyrimidine-6-carboxamide] | < 10 | 100 to 1000 | 
CC1(C)CC(C(=O)Nc2cnc(OC(F)F)c(Cl)c2)c2cnc3cc(Cl)nn3c21 (single isomer, unassigned) [Example 68, 2-chloro-N-(5-chloro-6-(difluoromethoxy)pyridin-3-yl)-8,8-dimethyl-7,8-dihydro-6H-cyclopenta[e]pyrazolo[1,5-a]pyrimidine-6-carboxamide] | < 10 | 100 to 1000 | 
CC1(C)CC(C(=O)Nc2cnc(-n3nccn3)c(Cl)c2)c2cnc3c(F)c(F)nn3c21 (single isomer, unassigned) [Example 122, N-(5-chloro-6-(2H-1,2,3-triazol-2-yl)pyridin-3-yl)-2,3-difluoro-8,8-dimethyl-7,8-dihydro-6H-cyclopenta[e]pyrazolo[1,5-a]pyrimidine-6-carboxamide] | < 10 | 100 to 1000 | 
CC1(C)CC(C(=O)Nc2cnc(-n3nccn3)c(C#N)c2)c2cnc3cc(F)nn3c21 (single isomer, unassigned) [Example 89, N-(5-cyano-6-(2H-1,2,3-triazol-2-yl)pyridin-3-yl)-2-fluoro-8,8-dimethyl-7,8-dihydro-6H-cyclopenta[e]pyrazolo[1,5-a]pyrimidine-6-carboxamide] | < 10 | 100 to 1000 | 
CC1(C)CC(C(=O)Nc2cnc(OC(F)F)c(C#N)c2)c2cnc3cc(F)nn3c21 (single isomer, unassigned) [Example 84, N-(5-cyano-6-(difluoromethoxy)pyridin-3-yl)-2-fluoro-8,8-dimethyl-7,8-dihydro-6H-cyclopenta[e]pyrazolo[1,5-a]pyrimidine-6-carboxamide] | < 10 | 10 to 100 | 
Cn1nnnc1-c1ncc(NC(=O)C2CC(C)(C)c3c2cnc2cc(Cl)nn32)cc1Cl (single isomer, unassigned) [Example 145, 2-chloro-N-(5-chloro-6-(1-methyl-1H-tetrazol-5-yl)pyridin-3-yl)-8,8-dimethyl-7,8-dihydro-6H-cyclopenta[e]pyrazolo[1,5-a]pyrimidine-6-carboxamide] | < 10 | 100 to 1000 | 
C[C@@H](O)c1cnn(-c2ncc(NC(=O)[C@H]3CC(C)(C)c4c3cnc3cc(Cl)nn43)cc2Cl)n1 (single isomer, unassigned) [Example 51, 2-chloro-N-(5-chloro-6-(4-(1-hydroxyethyl)-2H-1,2,3-triazol-2-yl)pyridin-3-yl)-8,8-dimethyl-7,8-dihydro-6H-cyclopenta[e]pyrazolo[1,5-a]pyrimidine-6-carboxamide] | < 10 | 100 to 1000 | 
Cc1cn2ncc3c(c2n1)C(C)(C)CC3C(=O)Nc1cnc(-n2nccn2)c(Cl)c1 (single isomer, unassigned) [Example 189, N-(5-chloro-6-(2H-1,2,3-triazol-2-yl)pyridin-3-yl)-2,9,9-trimethyl-8,9-dihydro-7H-cyclopenta[d]imidazo[1,2-b]pyridazine-7-carboxamide] | < 10 | 100 to 1000 | 
CC1(C)CC(C(=O)Nc2cnc(OC(F)F)c(Cl)c2)c2cnn3cc(Cl)nc3c21 (single isomer, unassigned) [Example 191, 2-chloro-N-(5-chloro-6-(difluoromethoxy)pyridin-3-yl)-9,9-dimethyl-8,9-dihydro-7H-cyclopenta[d]imidazo[1,2-b]pyridazine-7-carboxamide] | < 10 | 100 to 1000 | 

More lines, now with the values ahead:

IC50 [1] [nM] | IC50 ([2]; Homo sapiens) [nM] | IC50 [2] [nM] | Compound
10 to 100 | 100 to 1000 |  | O=C(Nc1cnc(-n2nccn2)c(C(F)(F)F)c1)C1CC2(CC2)c2c1cnc1cc(Cl)nn21 (single isomer, unassigned) [Example 149, N-(6-(2H-1,2,3-triazol-2-yl)-5-(trifluoromethyl)pyridin-3-yl)-2-chloro-6,7-dihydrospiro[cyclopenta[e]pyrazolo[1,5-a]pyrimidine-8,1′-cyclopropane]-6-carboxamide]
10 to 100 | 100 to 1000 |  | C[C@@]1(C(F)(F)F)C[C@H](C(=O)Nc2cnc(-n3nccn3)c(C(F)F)c2)c2cnc3cc(Cl)nn3c21 (single isomer, unassigned) [Example 64, 2-chloro-N-(5-(difluoromethyl)-6-(2H-1,2,3-triazol-2-yl)pyridin-3-yl)-8-methyl-8-(trifluoromethyl)-7,8-dihydro-6H-cyclopenta[e]pyrazolo[1,5-a]pyrimidine-6-carboxamide]
< 10 | 10 to 100 |  | CC1(C)CC(C(=O)Nc2cnc(-n3nccn3)c(C(F)(F)F)c2)c2cnc3cc(F)nn3c21 (single isomer, unassigned) [Example 151, N-(6-(2H-1,2,3-triazol-2-yl)-5-(trifluoromethyl)pyridin-3-yl)-2-fluoro-8,8-dimethyl-7,8-dihydro-6H-cyclopenta[e]pyrazolo[1,5-a]pyrimidine-6-carboxamide]
< 10 |  | 100 to 1000 | C[C@@]1(C(F)(F)F)C[C@H](C(=O)Nc2cnc(-n3nccn3)c(C(F)(F)F)c2)c2cnc3cc(Cl)nn3c21 (single isomer, unassigned) [Example 56, N-(6-(2H-1,2,3-triazol-2-yl)-5˜(trifluoromethyl)pyridin-3-yl)-2-chloro-8-methyl-8-(trifluoromethyl)-7,8-dihydro-6H-cyclopenta[e]pyrazolo[1,5-a]pyrimidine-6-carboxamide]
< 10 | 100 to 1000 |  | CC1(C)C[C@H](C(=O)Nc2cnc(-n3nccn3)c(C(F)(F)F)c2)c2cnc3cc(Cl)nn3c21 (single isomer, unassigned) [Example 44, N-(6-(2H-1,2,3-triazol-2-yl)-5˜(trifluoromethyl)pyridin-3-yl)-2-chloro-8,8-dimethyl-7,8-dihydro-6H-cyclopenta[e]pyrazolo[1,5-a]pyrimidine-6-carboxamide]
10 to 100 | 100 to 1000 |  | C[C@]1(C(F)(F)F)C[C@H](C(=O)Nc2cnc(-n3nccn3)c(C(F)F)c2)c2cnc3cc(Cl)nn3c21 (single isomer, unassigned) [Example 66, 2-chloro-N-(5-(difluoromethyl)-6-(2H-1,2,3-triazol-2-yl)pyridin-3-yl)-8-methyl-8-(trifluoromethyl)-7,8-dihydro-6H-cyclopenta[e]pyrazolo[1,5-a]pyrimidine-6-carboxamide]
